Measured values: ChEMBL document CHEMBL1201862, “PubChem BioAssay data set” (2004)
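96-well plates; 48 h exposure; 5 concentrations. Endpoints by linear interpolation between flanking doses. Not reached: highest tested concentration assigned. GI50 marks 50% less growth.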 Active and inactive are the calls of the source. Cut-off read from the data, not from the text of the source: active = GI50 up to about 1.1 µM and inactive = higher.

Experiments:
Test in all cases: growth of human tumour cells (NCI), 48 h
MDA-MB-435 = test system: MDA-MB-435
EKVX = test system: EKVX
HCT-15 = test system: HCT-15
UO-31 = test system: UO-31
RPMI-8226 = test system: RPMI-8226
TK-10 = test system: TK-10
HOP-92 = test system: HOP-92
BT-549 = test system: BT-549
OVCAR-3 = test system: OVCAR-3
SF-268 = test system: SF-268
NCI-H522 = test system: NCI-H522
OVCAR-5 = test system: OVCAR-5
T47D = test system: T47D
OVCAR-8 = test system: OVCAR-8
786-0 = test system: 786-0
MDA-MB-231 = test system: MDA-MB-231
SK-OV-3 = test system: SK-OV-3
ACHN = test system: ACHN
MCF7 = test system: MCF7
NCI-H460 = test system: NCI-H460
NCI/ADR-RES = test system: NCI/ADR-RES
CAKI-1 = test system: CAKI-1
SR = test system: SR
OVCAR-4 = test system: OVCAR-4
NCI-H226 = test system: NCI-H226
HCC 2998 = test system: HCC 2998
A498 = test system: A498
SNB-19 = test system: SNB-19
SF-539 = test system: SF-539
SK-MEL-5 = test system: SK-MEL-5
U-251 = test system: U-251
KM12 = test system: KM12
MOLT-4 = test system: MOLT-4
Hs-578T = test system: Hs-578T
SN12C = test system: SN12C
M14 = test system: M14
SK-MEL-28 = test system: SK-MEL-28
IGROV-1 = test system: IGROV-1
SK-MEL-2 = test system: SK-MEL-2
DU-145 = test system: DU-145
HOP-62 = test system: HOP-62
K562 = test system: K562
HCT-116 = test system: HCT-116
A549 = test system: A549
CCRF-CEM = test system: CCRF-CEM
COLO 205 = test system: COLO 205
HT-29 = test system: HT-29
RXF 393 = test system: RXF 393
HL-60 = test system: HL-60
UACC-257 = test system: UACC-257
Malme-3M = test system: Malme-3M
SF-295 = test system: SF-295
PC-3 = test system: PC-3
UACC-62 = test system: UACC-62
NCI-H23 = test system: NCI-H23
MDA-N = test system: MDA-N
SW-620 = test system: SW-620
SNB-75 = test system: SNB-75
LOX IMVI = test system: LOX IMVI

CCOC(=O)/C(C#N)=C(/NS(=O)(=O)c1cc(C)c(Cl)cc1[S-])[n+]1ccc(N(C)C)cc1
GI50 (MDA-MB-435): > 100 µM (inactive) | GI50 (EKVX): > 100 µM (inactive) | GI50 (HCT-15): > 100 µM | GI50 (UO-31): > 100 µM (inactive) | GI50 (RPMI-8226): > 100 µM (inactive) | GI50 (TK-10): > 100 µM (inactive) | GI50 (HOP-92): 27.4 µM (inactive) | GI50 (BT-549): > 100 µM (inactive) | GI50 (OVCAR-3): > 100 µM (inactive) | GI50 (SF-268): > 100 µM (inactive) | GI50 (NCI-H522): > 100 µM (inactive) | GI50 (OVCAR-5): > 100 µM (inactive) | GI50 (T47D): > 100 µM (inactive) | GI50 (OVCAR-8): > 100 µM (inactive) | GI50 (786-0): > 100 µM (inactive) | GI50 (MDA-MB-231): > 100 µM (inactive) | GI50 (SK-OV-3): > 100 µM (inactive) | GI50 (ACHN): > 100 µM (inactive) | GI50 (MCF7): > 100 µM (inactive) | GI50 (NCI-H460): > 100 µM (inactive) | GI50 (NCI/ADR-RES): > 100 µM (inactive) | GI50 (CAKI-1): > 100 µM (inactive) | GI50 (SR): > 100 µM (inactive) | GI50 (OVCAR-4): > 100 µM (inactive) | GI50 (NCI-H226): > 100 µM (inactive) | GI50 (HCC 2998): > 100 µM (inactive) | GI50 (A498): > 100 µM (inactive) | GI50 (SNB-19): > 100 µM (inactive) | GI50 (SF-539): > 100 µM (inactive) | GI50 (SK-MEL-5): > 100 µM (inactive) | GI50 (U-251): > 100 µM (inactive) | GI50 (KM12): > 100 µM (inactive) | GI50 (MOLT-4): > 100 µM (inactive) | GI50 (Hs-578T): > 100 µM (inactive) | GI50 (SN12C): > 100 µM (inactive) | GI50 (M14): > 100 µM (inactive) | GI50 (SK-MEL-28): > 100 µM (inactive) | GI50 (IGROV-1): > 100 µM (inactive) | GI50 (SK-MEL-2): > 100 µM (inactive) | GI50 (DU-145): > 100 µM (inactive) | GI50 (HOP-62): > 100 µM (inactive) | GI50 (K562): > 100 µM (inactive) | GI50 (HCT-116): > 100 µM (inactive) | GI50 (A549): > 100 µM (inactive) | GI50 (CCRF-CEM): > 100 µM (inactive) | GI50 (COLO 205): > 100 µM (inactive) | GI50 (HT-29): > 100 µM (inactive) | GI50 (RXF 393): > 100 µM (inactive) | GI50 (HL-60): > 100 µM (inactive) | GI50 (UACC-257): > 100 µM (inactive) | GI50 (Malme-3M): > 100 µM (inactive) | GI50 (SF-295): > 100 µM (inactive) | GI50 (PC-3): > 100 µM (inactive) | GI50 (UACC-62): > 100 µM (inactive) | GI50 (NCI-H23): > 100 µM (inactive)

CC(C)[C@H](C)/C=C/[C@@H](C)C1CC[C@H]2[C@@]34C=C[C@]5(C[C@@H](O)CC[C@]5(C)[C@H]3CC[C@]12C)OO4 (stereo partly specified)
GI50 (MDA-MB-435): 29.6 µM (inactive) | GI50 (EKVX): 39.3 µM (inactive) | GI50 (HCT-15): 32.8 µM | GI50 (UO-31): 37.3 µM (inactive) | GI50 (TK-10): 42 µM (inactive) | GI50 (HOP-92): 32.4 µM (inactive) | GI50 (BT-549): 26.9 µM (inactive) | GI50 (OVCAR-3): 89.5 µM (inactive) | GI50 (SF-268): 29.7 µM (inactive) | GI50 (MDA-N): 35.1 µM (inactive) | GI50 (OVCAR-5): > 100 µM (inactive) | GI50 (T47D): 20.8 µM (inactive) | GI50 (OVCAR-8): 20.8 µM (inactive) | GI50 (786-0): 20.4 µM (inactive) | GI50 (MDA-MB-231): 25.5 µM (inactive) | GI50 (SK-OV-3): 54.8 µM (inactive) | GI50 (ACHN): 37.4 µM (inactive) | GI50 (MCF7): 31.9 µM (inactive) | GI50 (NCI-H460): 31.8 µM (inactive) | GI50 (NCI/ADR-RES): 19.1 µM (inactive) | GI50 (CAKI-1): 22.5 µM (inactive) | GI50 (OVCAR-4): 40.1 µM (inactive) | GI50 (NCI-H226): 22.2 µM (inactive) | GI50 (HCC 2998): 21.9 µM (inactive) | GI50 (A498): 25.8 µM (inactive) | GI50 (SNB-19): 27.9 µM (inactive) | GI50 (SW-620): 27.1 µM (inactive) | GI50 (SF-539): 29.6 µM (inactive) | GI50 (SK-MEL-5): 23.6 µM (inactive) | GI50 (U-251): 24.3 µM (inactive) | GI50 (KM12): 31 µM (inactive) | GI50 (MOLT-4): 28.6 µM (inactive) | GI50 (SN12C): 28.6 µM (inactive) | GI50 (M14): 40.7 µM (inactive) | GI50 (SK-MEL-28): 34 µM (inactive) | GI50 (IGROV-1): 29 µM (inactive) | GI50 (SK-MEL-2): 26.7 µM (inactive) | GI50 (DU-145): 23.1 µM (inactive) | GI50 (HOP-62): > 100 µM (inactive) | GI50 (HCT-116): 19.3 µM (inactive) | GI50 (A549): 42.7 µM (inactive) | GI50 (SNB-75): 30.3 µM (inactive) | GI50 (COLO 205): 31 µM (inactive) | GI50 (HT-29): 23.3 µM (inactive) | GI50 (RXF 393): 44.5 µM (inactive) | GI50 (HL-60): 17.2 µM (inactive) | GI50 (UACC-257): > 100 µM (inactive) | GI50 (SF-295): 32.7 µM (inactive) | GI50 (UACC-62): 17.1 µM (inactive) | GI50 (NCI-H23): 27.3 µM (inactive) | GI50 (LOX IMVI): 17.7 µM (inactive)
